Data on five molecules can be found in patent publication US20040038855A1 (priority 1999, published 2004).

Assay [1] addresses T1, human H2 histamine receptor (Homo sapiens, UniProt P25021).
T1 construct: expressed in transfected cells
As to the kind of experiment: Binding affinity at the human histamine H2 receptor. The source says:
Binding studies for the β-adrenoceptor may be performed according to the method of Riva and Creese, 1989. Binding assays for the remainder of the receptors may be carried out according to the procedures described in U.S. Pat. No. 5,780,485, the disclosure of which is hereby incorporated by reference in its entirety into this application.

In another assay the target is T2, human α1B adrenoceptor (Homo sapiens, UniProt P35368).
T2 construct: expressed in transfected cells
T2 sequence (P35368 1-520): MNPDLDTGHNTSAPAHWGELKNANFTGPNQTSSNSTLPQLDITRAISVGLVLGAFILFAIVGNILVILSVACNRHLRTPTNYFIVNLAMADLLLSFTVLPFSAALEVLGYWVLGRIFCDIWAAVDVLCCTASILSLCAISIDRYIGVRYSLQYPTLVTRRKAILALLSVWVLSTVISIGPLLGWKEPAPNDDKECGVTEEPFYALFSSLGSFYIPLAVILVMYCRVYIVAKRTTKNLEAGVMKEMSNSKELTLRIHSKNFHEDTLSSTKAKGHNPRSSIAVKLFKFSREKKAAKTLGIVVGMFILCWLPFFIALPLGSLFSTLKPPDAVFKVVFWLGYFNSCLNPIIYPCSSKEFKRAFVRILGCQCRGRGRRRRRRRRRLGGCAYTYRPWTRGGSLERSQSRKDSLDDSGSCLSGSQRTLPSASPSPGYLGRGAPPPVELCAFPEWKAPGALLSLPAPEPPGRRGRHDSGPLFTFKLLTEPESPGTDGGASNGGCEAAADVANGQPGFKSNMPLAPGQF
As to the kind of experiment: Binding affinity at the human α1B adrenergic receptor. As to conditions: Table 3d; read-out: hα1B Ki. From the text:
(§1) Other receptors: Cell membranes expressing human dopamine D1, D2, D4 and rat D3 receptors were purchased through BioSignal, Inc. (Montreal, Canada). Binding assays using the histamine H1 receptor; dopamine receptors; and α1A, α1B, and α2 adrenergic receptors may be carried out according to the procedures described in U.S. Pat. No. 5,780,485, the disclosure of which is hereby incorporated by reference in its entirety into this application. Binding assays using the dopamine D5 receptor may be carried out according to the procedures described in U.S. Pat. No. 5,882,855, the disclosure of which is hereby incorporated by reference in its entirety into this application. Binding assays for the human α1D adrenergic receptor may be carried out according to the procedures described in U.S. Pat. No. 6,156,518, the disclosure of which is hereby incorporated by reference in its entirety into this application.

For a further assay, the target named is T3, human α2C adrenoceptor (Homo sapiens, UniProt P18825).
T3 construct: expressed in transfected cells
T3 sequence (P18825 1-462): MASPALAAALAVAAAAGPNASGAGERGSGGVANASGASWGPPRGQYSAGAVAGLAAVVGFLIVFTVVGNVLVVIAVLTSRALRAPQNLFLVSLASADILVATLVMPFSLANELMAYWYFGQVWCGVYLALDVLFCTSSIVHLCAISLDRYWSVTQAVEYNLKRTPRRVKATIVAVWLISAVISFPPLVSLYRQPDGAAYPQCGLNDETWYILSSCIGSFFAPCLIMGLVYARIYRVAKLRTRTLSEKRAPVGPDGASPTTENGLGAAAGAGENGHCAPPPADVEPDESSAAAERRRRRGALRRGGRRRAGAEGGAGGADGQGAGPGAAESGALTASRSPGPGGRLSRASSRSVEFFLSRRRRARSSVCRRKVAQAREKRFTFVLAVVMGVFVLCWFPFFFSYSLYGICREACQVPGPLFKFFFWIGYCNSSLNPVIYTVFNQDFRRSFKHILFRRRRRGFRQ
Description: Binding affinity at the human α2C adrenergic receptor.
Text: as §1

The next assay addresses T4, human 5HT1A receptor (Homo sapiens, UniProt P08908).
T4 construct: The cDNA corresponding to the 5HT1A receptor open reading frames and variable noncoding 5′ and 3′regions; expressed in transfected cells; host or cells: COS7 cells, transient, DEAE-dextran, vector pCEXV3
T4 sequence (P08908 1-422): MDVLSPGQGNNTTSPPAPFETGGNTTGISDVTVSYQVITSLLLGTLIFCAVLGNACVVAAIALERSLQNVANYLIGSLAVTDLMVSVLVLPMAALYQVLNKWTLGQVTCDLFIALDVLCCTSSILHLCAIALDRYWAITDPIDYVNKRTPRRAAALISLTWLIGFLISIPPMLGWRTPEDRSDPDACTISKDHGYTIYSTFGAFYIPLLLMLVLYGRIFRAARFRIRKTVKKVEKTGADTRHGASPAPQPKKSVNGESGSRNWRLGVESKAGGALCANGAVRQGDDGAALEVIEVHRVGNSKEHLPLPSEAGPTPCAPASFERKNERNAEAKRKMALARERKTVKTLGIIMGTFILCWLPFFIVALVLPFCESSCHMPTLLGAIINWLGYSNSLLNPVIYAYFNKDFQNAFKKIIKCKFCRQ
Description: Binding affinity at the human 5HT1A receptor (3H8OHDPAT). As to conditions: Table 3e; read-out: h5HT1A Ki. The procedure: 5HT1A Receptor: The cDNA corresponding to the 5HT1A receptor open reading frames and variable noncoding 5′ and 3′regions, was cloned into the eukaryotic expression vector pCEXV3. These constructs were transfected transiently into COS7 cells by the DEAEdextran method (Cullen, 1987), and harvested after 72 hours. Radioligand binding assays were performed as described above for the 5HT2A receptor, except that ^3H8OHDPAT was used as the radioligand and nonspecific binding was determined by the addition of 10 μM mianserin.

The next assay deals with T5, human α2B adrenoceptor (Homo sapiens, UniProt P18089).
T5 construct: expressed in transfected cells
T5 sequence (P18089 1-450): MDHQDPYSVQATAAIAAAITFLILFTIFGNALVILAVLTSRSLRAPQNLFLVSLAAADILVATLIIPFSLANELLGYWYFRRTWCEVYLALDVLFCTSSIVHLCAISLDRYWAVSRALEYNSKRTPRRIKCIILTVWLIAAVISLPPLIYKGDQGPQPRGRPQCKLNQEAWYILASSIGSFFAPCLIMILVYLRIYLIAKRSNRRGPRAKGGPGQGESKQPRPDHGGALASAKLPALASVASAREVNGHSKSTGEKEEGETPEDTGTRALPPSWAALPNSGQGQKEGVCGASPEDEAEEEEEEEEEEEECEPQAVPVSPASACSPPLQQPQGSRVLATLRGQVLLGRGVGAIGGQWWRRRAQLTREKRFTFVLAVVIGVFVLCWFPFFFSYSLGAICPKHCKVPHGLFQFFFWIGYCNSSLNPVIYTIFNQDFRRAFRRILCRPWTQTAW
As to the kind of experiment: Binding affinity at the human α2B adrenergic receptor.
Text: as §1

What is called Ki is a measure of affinity in units of concentration, obtained from inhibition or displacement.

Where a name gives a salt, the structure may show the parent alone. Read-outs that look alike come from different tables or passages of the source.

T1 sequence (P25021 whole entry): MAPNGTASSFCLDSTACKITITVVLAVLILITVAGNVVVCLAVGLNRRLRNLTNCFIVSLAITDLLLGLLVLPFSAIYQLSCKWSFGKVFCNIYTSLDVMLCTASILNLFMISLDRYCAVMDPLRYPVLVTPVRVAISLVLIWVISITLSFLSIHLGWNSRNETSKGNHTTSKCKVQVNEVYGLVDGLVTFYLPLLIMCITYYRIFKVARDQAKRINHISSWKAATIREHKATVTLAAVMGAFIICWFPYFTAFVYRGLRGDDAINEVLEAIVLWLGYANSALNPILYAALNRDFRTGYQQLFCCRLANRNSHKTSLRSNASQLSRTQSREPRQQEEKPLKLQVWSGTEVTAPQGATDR

On to `COCC1=C(C(=O)OC)[C@H](c2ccc(F)c(F)c2)N(C(=O)NCCCN2CCC(c3cccc(NC(C)=O)c3)CC2)C(=O)N1` [Example 10, (+)-1,2,3,6-TETRAHYDRO-1-{N-[4-(3,-ACETAMIDO)-PHENYLPIPERIDIN-1-YL]PROPYL}CARBOXAMIDO-4-METHOXYMETHYL-6-(3,4-DIFLUORO-PHENYL)-2-OXOPYRIMIDINE-5-CARBOXYLIC ACID METHYL ESTER], for which the Ki in assay [1] (Table 3e, * = >50000, read-out: hH2 Ki) is more than 50 µM; at human α1B adrenoceptor it was 11.3 µM.

For “2-(3,4-DIFLUOROPHENYL)4,5-DIHYDROIMIDAZOLE-1-CARBOXYLIC ACID {3-[4-PHENYL-4-(4-BROMO-5-METHYLTHIOPNEN-2-YL)]-PROPYL}-AMIDE [Example 19]”, the Ki on human α2C adrenoceptor (Table 3d, read-out: hα2C Ki) amounted to 0.174 µM; at human 5HT1A receptor, 7.94 µM; at human α2B adrenoceptor (Table 3d, read-out: hα2B Ki), 0.349 µM; at human α1B adrenoceptor it was 0.104 µM.

As to `COC(=O)C1=C(C)NC(=O)N(C(=O)NCCCN2CCC3(CC2)OCc2ccccc23)C1c1ccc2nonc2c1` (single isomer, unassigned) [Example 18, HYDROCHLORIDE], the Ki on human α2C adrenoceptor is 0.096 µM; on human 5HT1A receptor, 1.24 µM; on human α2B adrenoceptor it was 0.074 µM; in assay [1], 0.944 µM; at human α1B adrenoceptor it was 0.418 µM.

In the case of `COC(=O)C1=C(C)NC(=O)N(C(=O)NCCCN2CCC3(CC2)OCc2ccccc23)C1c1ccc(F)c(F)c1` (centres unmarked) [Example 20, 4-(3,4-DIFLUORPHENYL)-6-METHYL-2-OXO-3-{[3-(4-SPIRO[ISOBENZOFURAN-1(3H),4′-PIPERIDINE]PROPYL}-1,2,3,4-TETRAHYDROPYRIMIDINE-5-CARBOXYLIC ACID METHYL ESTER], the Ki is 0.138 µM at human α2C adrenoceptor (Table 3d, read-out: hα2C Ki); 2.19 µM on human 5HT1A receptor; 0.097 µM on human α2B adrenoceptor; 1.91 µM in assay [1]; 0.407 µM at human α1B adrenoceptor.

`COCC1=C(C(=O)OC)C(c2ccc(F)c(F)c2)N(C(=O)NCCCN2CCC(c3cccc(NC(C)=O)c3)CC2)C(=O)N1` (single isomer, unassigned; (-)) [Example 1, (−)-1,2,3,6-TETRAHYDRO-1-{N-[4-(3,-ACETAMIDO)-PHENYLPIPERIDIN-1-YL]PROPYL}CARBOXAMIDO-4-METHOXYMETHYL-6-(3,4-DIFLUORO-PHENYL)-2-OXOPYRIMIDINE-5-CARBOXYLIC ACID METHYL ESTER]: the Ki at human α1B adrenoceptor came to 9.03 µM.
